Legend:
[1] = Cytotoxicity in NGF-differentiated PC12 cells, WST-8 cell viability assay; type: cell-based; settings: rat, WST-8, 24 h exposure, mean ± SEM of 3–4 experiments, read-out: LC50 (approximated), cell viability
Procedure: Pheochromocytoma cells (PC12) cells were cultured in collagen-coated dishes in DMEM supplemented with heat-inactivated 5% FBS, 10% horse serum, 10 mM HEPES, 2 mM glutamine, 25 UI/mL penicillin, and 25 μg/mL streptomycin (maintenance medium) and grown at 37 °C in a humidified 5% CO2 atmosphere. Cell differentiation was performed as described[54] with minor modifications. In brief, cells were seeded (250.000 cells/well) onto 96-well plates in the maintenance medium, and after 24 h, the medium was changed to a differentiation medium containing 50 ng/mL NGF. After 24 h, neurite outgrowth was already apparent.
Treatments with different concentrations of the drug in DMEM were performed 48 h after cell differentiation. 10 μL of the tested drug was added per well, in triplicate, and cells were incubated for 24 h at 37 °C in a humidified 5% CO2 atmosphere. Thereafter, the medium was removed and immediately replaced with a maintenance medium. 10 μL of the CCK-8 Cell Counting Kit, based on 2-(2-methoxy-4-nitrophenyl)-3-(4-nitrophenyl)-5-(2,4-disulfophenyl)-2H-tetrazolium, monosodium salt (WST-8), was added per well and was incubated for 2 h at 37 °C in a humidified 5% CO2 atmosphere. This method has been defined as a good alternative to the 3-(4,5-dimethylthiazol-2-yl)-2,5-diphenyltetrazoliumbromide (MTT) assay.[63] Optical density was measured at 450 nm, using a microplate reader.
For in vitro assays, data were normalized with 100% defined as the mean of the technical replicates in the control group and expressed as mean ± SEM. Nonlinear regression was used to fit the different competition curves. Data were plotted and best fitted to a sigmoidal dose–response curve from which an IC50 or LC50 value was obtained. Transporter ratios were calculated as (1/DAT IC50: 1/SERT IC50). Although IC50 values at inhibiting 5-HT uptake for some compounds tested are expressed as >100 μM for clarity purposes, DAT/SERT ratios were calculated with the original raw data. The Cheng–Prusoff equation was used to calculate Ki (affinity): Ki = EC50/(1 + [radioligand concentration/Kd]).[65] The sample size for behavioral experiments was determined using GPower software. One-way or two-way ANOVA, and subsequent Tukey’s posthoc test, conducted only if F was significant, was used to determine the effects of cathinones on cytotoxicity, HLA, OF, and CPP experiments. The α error probability was set at 0.05 (p < 0.05). The exact size group for the behavioral experiments is shown in the corresponding figure legends. All statistic calculations were carried out using GraphPad Prism (GraphPad software, San Diego, CA, USA).

Swiss CD-1 mice [2] = test: Horizontal locomotor activity (HLA) in mice; type: in vivo; settings: for HLA (total distance traveled in 60 min) vs saline / duration of the significant increase in locomotor activity: 3 mg/kg i.p.; for duration of the significant increase in locomotor activity: 5 min blocks; for shape of the dose response of HLA: 3, 10, 30 mg/kg i.p., ceiling at highest dose 30 mg/kg
Procedure: (§1) Male Swiss CD-1 mice (Janvier, Le Genest, France) weighing 30–35 g (6–8 weeks old), housed in temperature-controlled conditions (22 ± 1 °C) under a 12 h light/dark cycle and with free access to food and drinking water (standard laboratory diet, Panlab SL, Barcelona, Spain), were randomly assigned to an experimental group. Efforts were made to minimize animal use and suffering.
In the habituation phase, which lasted for two consecutive days, mice received an intraperitoneal (i.p.) saline injection and were immediately placed into a black Plexiglass OF arena (25 × 25 × 40 cm) under low-light conditions and white noise for 30 min. On the test day, the HLA was measured as described.[8] […] HLA was video-monitored for 1 h and a specific tracking software (Smart 3.0 Panlab, Barcelona, Spain) was used to measure their total traveled distance (in cm). The doses were chosen according to the psychostimulant effect induced by structurally related synthetic cathinones published in previous studies by our research group.[8]

Swiss CD-1 mice [3] = test: Conditioned place preference (CPP); type: in vivo; settings: for CPP preference score vs saline: 3 mg/kg i.p.
Procedure: as §1
The potential of the studied compounds to induce reward was determined using a place conditioning paradigm, as described.[6] For this experiment, an apparatus with two distinct compartments, with differences in tactile and visual cues, communicated by a central corridor, has been used. In brief, CPP was performed in three phases: preconditioning test, conditioning, and postconditioning test. During the preconditioning phase (day 0), mice were placed in the middle of the corridor and had free access to both compartments for 15 min. The time spent in each compartment was recorded and monitored using a specific tracking software (Smart 3.0 Panlab, Barcelona, Spain). […] In the alternative session, mice received a saline i.p. injection and were placed for 20 min in the other compartment. Mice in the control group received a saline injection in every session. The compartment and session in which mice received the drug were randomized. On the test day (postconditioning phase), the same conditions as in the preconditioning phase were applied. A preference score was calculated as the difference between the time spent in the drug-paired compartment in the postconditioning test minus the time spent in the preconditioning phase.

Structure (SMILES) | CC50 at 24 h [1] | HLA (total distance traveled in 60 min) vs saline (Swiss CD-1 mice [2]) | duration of the significant increase in locomotor activity (Swiss CD-1 mice [2]) | shape of the dose response of HLA (Swiss CD-1 mice [2]) | CPP preference score vs saline (Swiss CD-1 mice [3]) | CPP rewarding effect vs saline (Swiss CD-1 mice [3]; 10 mg/kg i.p.) | time at which the locomotor effect ended (Swiss CD-1 mice [2]; 10 mg/kg i.p., 60 min session) | CPP rewarding effect vs saline (Swiss CD-1 mice [3]; any dose tested (3, 10, 30 mg/kg i.p.))
CCNC(CC)C(=O)c1ccccc1 (centres unmarked) [NEB, N-ethyl-buphedrone] | 6.24 mM | significant effect | 15 min | ceiling effect | significant preference score | produce rewarding effects |  | 
CCNC(C)C(=O)c1ccccc1 (centres unmarked) [NEC, N-ethyl-cathinone] | 3.97 mM |  |  | dose–response relationship | significant preference score | produce rewarding effects |  | 
CCCCCC(NCC)C(=O)c1ccccc1 (centres unmarked) [NEHP, N-ethyl-heptedrone] | 1.26 mM |  |  | dose–response relationship |  |  | < 60 min | did not induce a significant rewarding effect
CCCCC(NCC)C(=O)c1ccccc1 (centres unmarked) [NEH, N-ethyl-hexedrone] | 3.28 mM |  |  | dose–response relationship |  | produce rewarding effects |  | 
CCCC(NCC)C(=O)c1ccccc1 (centres unmarked) [NEPD, N-ethyl-pentedrone] | 3.82 mM | significant effect | 40 min | ceiling effect | significant preference score | produce rewarding effects |  | 

Source: PMC9936538, “Structure–Activity Relationship of N-Ethyl-Hexedrone Analogues: Role of the α-Carbon Side-Chain Length in the Mechanism of Action, Cytotoxicity, and Behavioral Effects in Mice” (ACS Chemical Neuroscience, 2023)
